Starred links: 1 amine or outer side, 2 acyl side, 3 side chain; linkers in the order of their positions; H or OH if unused. Non-standard residues stand in square brackets, D forms with d. Residues, ends and D or L forms follow the SMILES beside them. Groups on a side chain read outwards from the residue. *: point of attachment. C18 diacid = O=C(O)CCCCCCCCCCCCCCCCC(=O)*; C17 diacid = O=C(O)CCCCCCCCCCCCCCCC(=O)*; γGlu = O=C(O)[C@H](CCC(=O)[*:2])N[*:1]; NMeY = CN[C@@H](Cc1ccc(O)cc1)C(=O)O; AEEA = NCCOCCOCC(=O)O; Aib = CC(C)(N)C(=O)O
Test: physchem
Method in brief: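 Solubility at pH 7.4 determined by stepwise addition of 200 mM phosphate buffer in 100 μL increments to 3 mg peptide, mixing briefly each time, until no insoluble material remained, then measured by liquid chromatography.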

[1] = pH 7.4, aqueous buffer, pH 7.4 Phosphate Buffer - Solubility, 200 mM Phosphate buffer pH 7.4
[2] = pH 7.4, solubility in phosphate buffer at pH 7.4, 200 mM phosphate buffer pH 7.4

CC[C@H](C)[C@H](NC(=O)[C@H](Cc1ccccc1)NC(=O)[C@@H](NC(=O)CNC(=O)[C@H](CCC(=O)O)NC(=O)C(C)(C)NC(=O)[C@H](Cc1ccc(O)cc1)NC)[C@@H](C)O)C(=O)N[C@@H](CO)C(=O)N[C@@H](CC(=O)O)C(=O)N[C@@H](Cc1ccc(O)cc1)C(=O)N[C@@H](CO)C(=O)N[C@H](C(=O)NC(C)(C)C(=O)N[C@@H](CCCCNC(=O)COCCOCCNC(=O)COCCOCCNC(=O)CC[C@H](NC(=O)CC[C@H](NC(=O)CCCCCCCCCCCCCCCC(=O)O)C(=O)O)C(=O)O)C(=O)N[C@@H](CC(=O)O)C(=O)N[C@@H](CCCNC(=N)N)C(=O)NC(C)(C)C(=O)N[C@@H](C)C(=O)N[C@@H](CCC(N)=O)C(=O)NC(C)(C)C(=O)N[C@@H](CC(N)=O)C(=O)N[C@@H](Cc1ccccc1)C(=O)N[C@H](C(=O)N[C@@H](CC(N)=O)C(=O)N[C@@H](Cc1c[nH]c2ccccc12)C(=O)N[C@@H](CC(C)C)C(=O)N[C@@H](CC(C)C)C(=O)N[C@@H](C)C(=O)N[C@@H](CCC(N)=O)C(=O)N[C@@H](CCCNC(=N)N)C(=O)NCC(=O)NCC(=O)NCC(=O)NCC(=O)N[C@@H](CO)C(N)=O)C(C)C)[C@@H](C)CC [Compound 32] (H-[NMeY][Aib]EGTFISDYSI[Aib]K([AEEA-AEEA-γGlu-γGlu-C17 diacid])DR[Aib]AQ[Aib]NFVNWLLAQRGGGGS-NH2)
solubility (pH 7.4): ≥ 15 mg/mL | solubility (pH 7.4, aqueous buffer): ≥ 30 mg/mL

CC[C@H](C)[C@H](NC(=O)[C@H](Cc1ccccc1)NC(=O)[C@@H](NC(=O)CNC(=O)[C@H](CCC(=O)O)NC(=O)C(C)(C)NC(=O)[C@H](Cc1ccc(O)cc1)NC)[C@@H](C)O)C(=O)N[C@@H](CO)C(=O)N[C@@H](CC(=O)O)C(=O)N[C@@H](Cc1ccc(O)cc1)C(=O)N[C@@H](CO)C(=O)N[C@H](C(=O)NC(C)(C)C(=O)N[C@@H](CC(C)C)C(=O)N[C@@H](CC(=O)O)C(=O)N[C@@H](CCCNC(=N)N)C(=O)NC(C)(C)C(=O)N[C@@H](C)C(=O)N[C@@H](CCC(N)=O)C(=O)NC(C)(C)C(=O)N[C@@H](CC(N)=O)C(=O)N[C@@H](Cc1ccccc1)C(=O)N[C@H](C(=O)N[C@@H](CC(N)=O)C(=O)N[C@@H](Cc1c[nH]c2ccccc12)C(=O)N[C@@H](CC(C)C)C(=O)N[C@@H](CC(C)C)C(=O)N[C@@H](C)C(=O)N[C@@H](CCC(N)=O)C(=O)N[C@@H](CCCCNC(=O)COCCOCCNC(=O)COCCOCCNC(=O)CC[C@H](NC(=O)CC[C@H](NC(=O)CCCCCCCCCCCCCCCC(=O)O)C(=O)O)C(=O)O)C(=O)NCC(=O)NCC(=O)NCC(=O)NCC(=O)N[C@@H](CO)C(N)=O)C(C)C)[C@@H](C)CC [Compound 33] (H-[NMeY][Aib]EGTFISDYSI[Aib]LDR[Aib]AQ[Aib]NFVNWLLAQK([AEEA-AEEA-γGlu-γGlu-C17 diacid])GGGGS-NH2)
solubility (pH 7.4): ≥ 15 mg/mL | solubility (pH 7.4, aqueous buffer): ≥ 30 mg/mL

CC[C@H](C)[C@H](NC(=O)[C@H](CO)NC(=O)[C@H](Cc1ccc(O)cc1)NC(=O)[C@H](CC(=O)O)NC(=O)[C@H](CO)NC(=O)[C@@H](NC(=O)[C@H](Cc1ccccc1)NC(=O)[C@@H](NC(=O)CNC(=O)[C@H](CCC(=O)O)NC(=O)C(C)(C)NC(=O)[C@H](Cc1ccc(O)cc1)NC)[C@@H](C)O)[C@@H](C)CC)C(=O)N[C@@H](C)C(=O)N[C@@H](CCCCNC(=O)CNC(=O)CNC(=O)CNC(=O)CNC(=O)CNC(=O)CC[C@H](NC(=O)CC[C@H](NC(=O)CCCCCCCCCCCCCCCCC(=O)O)C(=O)O)C(=O)O)C(=O)N[C@@H](CC(=O)O)C(=O)N[C@@H](CCCNC(=N)N)C(=O)NC(C)(C)C(=O)N[C@@H](C)C(=O)N[C@@H](CCC(N)=O)C(=O)NC(C)(C)C(=O)N[C@@H](CC(N)=O)C(=O)N[C@@H](Cc1ccccc1)C(=O)N[C@H](C(=O)N[C@@H](CC(N)=O)C(=O)N[C@@H](Cc1c[nH]c2ccccc12)C(=O)N[C@@H](CC(C)C)C(=O)N[C@@H](CC(C)C)C(=O)N[C@@H](C)C(=O)N[C@@H](CCC(N)=O)C(=O)N[C@@H](CCCNC(=N)N)C(=O)N1CCC[C@H]1C(=O)N[C@@H](CO)C(=O)N[C@@H](CO)C(=O)NCC(=O)N[C@@H](C)C(=O)N1CCC[C@H]1C(=O)N1CCC[C@H]1C(=O)N1CCC[C@H]1C(=O)N[C@@H](CO)C(N)=O)C(C)C [Compound 34]
solubility [1]: ≥ 30 mg/mL | solubility [2]: ≥ 15 mg/mL

CC[C@H](C)[C@H](NC(=O)[C@H](CO)NC(=O)[C@H](Cc1ccc(O)cc1)NC(=O)[C@H](CC(=O)O)NC(=O)[C@H](CO)NC(=O)[C@@H](NC(=O)[C@H](Cc1ccccc1)NC(=O)[C@@H](NC(=O)CNC(=O)[C@H](CCC(=O)O)NC(=O)C(C)(C)NC(=O)[C@H](Cc1ccc(O)cc1)NC)[C@@H](C)O)[C@@H](C)CC)C(=O)N[C@@H](C)C(=O)N[C@@H](CC(C)C)C(=O)N[C@@H](CC(=O)O)C(=O)N[C@@H](CCCNC(=N)N)C(=O)NC(C)(C)C(=O)N[C@@H](C)C(=O)N[C@@H](CCC(N)=O)C(=O)NC(C)(C)C(=O)N[C@@H](CCCCNC(=O)COCCOCCNC(=O)COCCOCCNC(=O)CC[C@H](NC(=O)CC[C@H](NC(=O)CCCCCCCCCCCCCCCCC(=O)O)C(=O)O)C(=O)O)C(=O)N[C@@H](Cc1ccccc1)C(=O)N[C@H](C(=O)N[C@@H](CC(N)=O)C(=O)N[C@@H](Cc1c[nH]c2ccccc12)C(=O)N[C@@H](CC(C)C)C(=O)N[C@@H](CC(C)C)C(=O)N[C@@H](C)C(=O)N[C@@H](CCC(N)=O)C(=O)N[C@@H](CCCNC(=N)N)C(=O)N1CCC[C@H]1C(=O)N[C@@H](CO)C(=O)N[C@@H](CO)C(=O)NCC(=O)N[C@@H](C)C(=O)N1CCC[C@H]1C(=O)N1CCC[C@H]1C(=O)N1CCC[C@H]1C(=O)N[C@@H](CO)C(N)=O)C(C)C [Compound 35] (H-[NMeY][Aib]EGTFISDYSIALDR[Aib]AQ[Aib]K([AEEA-AEEA-γGlu-γGlu-C18 diacid])FVNWLLAQRPSSGAPPPS-NH2)
solubility [1]: ≥ 30 mg/mL | solubility [2]: ≥ 15 mg/mL

CC[C@H](C)[C@H](NC(=O)[C@H](CO)NC(=O)[C@H](Cc1ccc(O)cc1)NC(=O)[C@H](CC(=O)O)NC(=O)[C@H](CO)NC(=O)[C@@H](NC(=O)[C@H](Cc1ccccc1)NC(=O)[C@@H](NC(=O)CNC(=O)[C@H](CCC(=O)O)NC(=O)C(C)(C)NC(=O)[C@H](Cc1ccc(O)cc1)NC)[C@@H](C)O)[C@@H](C)CC)C(=O)N[C@@H](C)C(=O)N[C@@H](CC(C)C)C(=O)N[C@@H](CC(=O)O)C(=O)N[C@@H](CCCNC(=N)N)C(=O)NC(C)(C)C(=O)N[C@@H](C)C(=O)N[C@@H](CCC(N)=O)C(=O)NC(C)(C)C(=O)N[C@@H](CCCCNC(=O)COCCOCCNC(=O)COCCOCCNC(=O)CC[C@H](NC(=O)CC[C@H](NC(=O)CCCCCCCCCCCCCCCCC(=O)O)C(=O)O)C(=O)O)C(=O)N[C@@H](Cc1ccccc1)C(=O)N[C@H](C(=O)N[C@@H](CC(N)=O)C(=O)N[C@@H](Cc1c[nH]c2ccccc12)C(=O)N[C@@H](CC(C)C)C(=O)N[C@@H](CC(C)C)C(=O)N[C@@H](C)C(=O)N[C@@H](CCC(N)=O)C(=O)N[C@@H](CO)C(=O)NCC(=O)O)C(C)C [Compound 42] (H-[NMeY][Aib]EGTFISDYSIALDR[Aib]AQ[Aib]K([AEEA-AEEA-γGlu-γGlu-C18 diacid])FVNWLLAQSG-OH)
solubility (pH 7.4): ≥ 15 mg/mL | solubility (pH 7.4, aqueous buffer): ≥ 30 mg/mL

CC[C@H](C)[C@H](NC(=O)[C@H](CO)NC(=O)[C@H](Cc1ccc(O)cc1)NC(=O)[C@H](CC(=O)O)NC(=O)[C@H](CO)NC(=O)[C@@H](NC(=O)[C@H](Cc1ccccc1)NC(=O)[C@@H](NC(=O)CNC(=O)[C@H](CCC(=O)O)NC(=O)C(C)(C)NC(=O)[C@H](Cc1ccc(O)cc1)NC)[C@@H](C)O)[C@@H](C)CC)C(=O)N[C@@H](C)C(=O)N[C@@H](CC(C)C)C(=O)N[C@@H](CC(=O)O)C(=O)N[C@@H](CCCNC(=N)N)C(=O)NC(C)(C)C(=O)N[C@@H](CCCCNC(=O)COCCOCCNC(=O)COCCOCCNC(=O)CC[C@H](NC(=O)CC[C@H](NC(=O)CCCCCCCCCCCCCCCCC(=O)O)C(=O)O)C(=O)O)C(=O)N[C@@H](CCC(N)=O)C(=O)NC(C)(C)C(=O)N[C@@H](CC(N)=O)C(=O)N[C@@H](Cc1ccccc1)C(=O)N[C@H](C(=O)N[C@@H](CC(N)=O)C(=O)N[C@@H](Cc1c[nH]c2ccccc12)C(=O)N[C@@H](CC(C)C)C(=O)N[C@@H](CC(C)C)C(=O)N[C@@H](C)C(=O)N[C@@H](CCC(N)=O)C(=O)N[C@@H](CO)C(=O)NCC(=O)O)C(C)C [Compound 46] (H-[NMeY][Aib]EGTFISDYSIALDR[Aib]K([AEEA-AEEA-γGlu-γGlu-C18 diacid])Q[Aib]NFVNWLLAQSG-OH)
solubility (pH 7.4): ≥ 15 mg/mL | solubility (pH 7.4, aqueous buffer): ≥ 30 mg/mL

CC[C@H](C)[C@H](NC(=O)[C@H](CO)NC(=O)[C@H](Cc1ccc(O)cc1)NC(=O)[C@H](CC(=O)O)NC(=O)[C@H](CO)NC(=O)[C@@H](NC(=O)[C@H](Cc1ccccc1)NC(=O)[C@@H](NC(=O)CNC(=O)[C@H](CCC(=O)O)NC(=O)C(C)(C)NC(=O)[C@H](Cc1ccc(O)cc1)NC)[C@@H](C)O)[C@@H](C)CC)C(=O)N[C@@H](C)C(=O)N[C@@H](CC(C)C)C(=O)N[C@@H](CC(=O)O)C(=O)N[C@@H](CCCNC(=N)N)C(=O)NC(C)(C)C(=O)N[C@@H](CCCCNC(=O)COCCOCCNC(=O)COCCOCCNC(=O)CC[C@H](NC(=O)CC[C@H](NC(=O)CCCCCCCCCCCCCCCCC(=O)O)C(=O)O)C(=O)O)C(=O)N[C@@H](CCC(N)=O)C(=O)NC(C)(C)C(=O)N[C@@H](CC(=O)O)C(=O)N[C@@H](Cc1ccccc1)C(=O)N[C@H](C(=O)N[C@@H](CC(N)=O)C(=O)N[C@@H](Cc1c[nH]c2ccccc12)C(=O)N[C@@H](CC(C)C)C(=O)N[C@@H](CC(C)C)C(=O)N[C@@H](C)C(=O)N[C@@H](CCC(N)=O)C(=O)N[C@@H](CCCNC(=N)N)C(=O)NCC(=O)O)C(C)C [Compound 49] (H-[NMeY][Aib]EGTFISDYSIALDR[Aib]K([AEEA-AEEA-γGlu-γGlu-C18 diacid])Q[Aib]DFVNWLLAQRG-OH)
solubility (pH 7.4): ≥ 15 mg/mL | solubility (pH 7.4, aqueous buffer): ≥ 30 mg/mL

From patent publication US20230143604A1, “QW DOSING OF GIP RECEPTOR AGONIST PEPTIDE COMPOUNDS AND USES THEREOF” (TAKEDA PHARMACEUTICAL COMPANY LIMITED, priority 2020, published 2023)
